Laboratory results published in patent US20230330112A1, “COMPOSITION AND TREATMENT FOR CANCER WITH MUTATIONS” (BRIDGE BIOTHERAPEUTICS, INC., priority 2022, published 2023).

Test: Phase 1 study of Compound A for NSCLC, safety
Type: in vivo, human
Protocol: A first-in-human phase 1 study is ongoing to evaluate the safety of Compound A, including a dose-escalation phase to characterize dose-limiting toxicities (DLTs) (FIG. 6) and determine the recommended phase 2 dose (NCT04820023). Eligibility criteria included advanced-stage NSCLC with an activating EGFR mutation and disease progression on at least one prior EGFR inhibitor. A measurable lesion was required for exploratory evaluation of efficacy. Starting from 20 mg QD (once daily; every day), Compound A dose levels were escalated after evaluating dose-DLT relationships and toxicity probabilities during the first 21 days of dosing.
All enrolled patients underwent ctDNA analysis (Guardant360, Guardant Health) at screening and every 6 weeks throughout treatment, which was compared to imaging at the same time points. Changes in allelic frequency were calculated as per the proprietary algorithm of Guardant Health (7). Intra-patient dose-escalation to the next dose level was allowed. Plasma samples were collected at prespecified time points at cycle 2, Day 1 following multiple doses (steady state) of Compound A in the dose-escalation cohorts, and the plasma concentrations were determined by a validated LC-MS/MS method with the LLOQ established at 1 ng/mL.

For `COc1cc(N2CCC(N3CCN(C)CC3)CC2)ccc1Nc1ncc(Cl)c(Nc2ccccc2NS(C)(=O)=O)n1` [Compound A, N-(2-((5-chloro-2-((2-methoxy-4-(4-(4-methylpiperazin-1-yl)piperidin-1-yl)phenyl)amino)pyrimidin-4-yl)amino)phenyl)methanesulfonamide], the “Anorexia, All grade, %” value (20 mg QD (N = 4)) was 0%, the “Anorexia, Grade ≥ 3, %” value (20 mg QD (N = 4)) was 0% and the “Any TEAE, All grade, %” value (20 mg QD (N = 4)) was 75%. The “Any TEAE, Grade ≥ 3, %” value (20 mg QD (N = 4)) was 25%, the “Constipation, All grade, %” value (20 mg QD (N = 4)) was 0% and the “Constipation, Grade ≥ 3, %” value (20 mg QD (N = 4)) was 0%. The “Diarrhea, All grade, %” value (20 mg QD (N = 4)) was 0%, the “Diarrhea, Grade ≥ 3, %” value (20 mg QD (N = 4)) was 0% and the “Dizziness, All grade, %” value (20 mg QD (N = 4)) was 0%. For the same molecule, the “Dizziness, Grade ≥ 3, %” value (20 mg QD (N = 4)) was 0%, the “Dyspepsia, All grade, %” value (20 mg QD (N = 4)) was 0% and the “Dyspepsia, Grade ≥ 3, %” value (20 mg QD (N = 4)) was 0%. The “Nausea, All grade, %” value (20 mg QD (N = 4)) was 0%, the “Nausea, Grade ≥ 3, %” value (20 mg QD (N = 4)) was 0% and the “Neutropenia/Neutrophil count decreased, All grade, %” value (20 mg QD (N = 4)) was 0%. The “Neutropenia/Neutrophil count decreased, Grade ≥ 3, %” value (20 mg QD (N = 4)) was 0%, the “Platelet count decreased, All grade, %” value (20 mg QD (N = 4)) was 0% and the “Platelet count decreased, Grade ≥ 3, %” value (20 mg QD (N = 4)) was 0%. For the same molecule, the “Serious TEAE, All grade, %” value (20 mg QD (N = 4)) was 0%, the “Serious TEAE, Grade ≥ 3, %” value (20 mg QD (N = 4)) was 0% and the “TEAE leading to Dose interruption, All grade, %” value (20 mg QD (N = 4)) was 0%. For the same molecule, the “TEAE leading to Dose interruption, Grade ≥ 3, %” value (20 mg QD (N = 4)) was 0%, the “TEAE leading to Dose permanently discontinued, All grade, %” value (20 mg QD (N = 4)) was 0% and the “TEAE leading to Dose permanently discontinued, Grade ≥ 3, %” value (20 mg QD (N = 4)) was 0%. For the same molecule, the “TEAE leading to Dose reduced, All grade, %” value (20 mg QD (N = 4)) was 0%, the “TEAE leading to Dose reduced, Grade ≥ 3, %” value (20 mg QD (N = 4)) was 0% and the “Vomiting, All grade, %” value (20 mg QD (N = 4)) was 0%. The “Vomiting, Grade ≥ 3, %” value (20 mg QD (N = 4)) was 0%, the “Anorexia, All grade, %” value (80 mg QD (N = 3)) was 0% and the “Anorexia, Grade ≥ 3, %” value (80 mg QD (N = 3)) was 0%. The “Any TEAE, All grade, %” value (80 mg QD (N = 3)) was 67%, the “Any TEAE, Grade ≥ 3, %” value (80 mg QD (N = 3)) was 0% and the “Constipation, All grade, %” value (80 mg QD (N = 3)) was 33%. For the same molecule, the “Constipation, Grade ≥ 3, %” value (80 mg QD (N = 3)) was 0%, the “Diarrhea, All grade, %” value (80 mg QD (N = 3)) was 0% and the “Diarrhea, Grade ≥ 3, %” value (80 mg QD (N = 3)) was 0%. The “Dizziness, All grade, %” value (80 mg QD (N = 3)) was 0%, the “Dizziness, Grade ≥ 3, %” value (80 mg QD (N = 3)) was 0% and the “Dyspepsia, All grade, %” value (80 mg QD (N = 3)) was 33%. The “Dyspepsia, Grade ≥ 3, %” value (80 mg QD (N = 3)) was 0%, the “Nausea, All grade, %” value (80 mg QD (N = 3)) was 0% and the “Nausea, Grade ≥ 3, %” value (80 mg QD (N = 3)) was 0%. For the same molecule, the “Neutropenia/Neutrophil count decreased, All grade, %” value (80 mg QD (N = 3)) was 0%, the “Neutropenia/Neutrophil count decreased, Grade ≥ 3, %” value (80 mg QD (N = 3)) was 0% and the “Platelet count decreased, All grade, %” value (80 mg QD (N = 3)) was 0%. The “Platelet count decreased, Grade ≥ 3, %” value (80 mg QD (N = 3)) was 0%, the “Serious TEAE, All grade, %” value (80 mg QD (N = 3)) was 0% and the “Serious TEAE, Grade ≥ 3, %” value (80 mg QD (N = 3)) was 0%. For the same molecule, the “TEAE leading to Dose interruption, All grade, %” value (80 mg QD (N = 3)) was 0%, the “TEAE leading to Dose interruption, Grade ≥ 3, %” value (80 mg QD (N = 3)) was 0% and the “TEAE leading to Dose permanently discontinued, All grade, %” value (80 mg QD (N = 3)) was 0%. The “TEAE leading to Dose permanently discontinued, Grade ≥ 3, %” value (80 mg QD (N = 3)) was 0%, the “TEAE leading to Dose reduced, All grade, %” value (80 mg QD (N = 3)) was 0% and the “TEAE leading to Dose reduced, Grade ≥ 3, %” value (80 mg QD (N = 3)) was 0%. The “Vomiting, All grade, %” value (80 mg QD (N = 3)) was 33%, the “Vomiting, Grade ≥ 3, %” value (80 mg QD (N = 3)) was 0% and the “Anorexia, All grade, %” value (160 mg QD (N = 4)) was 0%. For the same molecule, the “Anorexia, Grade ≥ 3, %” value (160 mg QD (N = 4)) was 0%, the “Any TEAE, All grade, %” value (160 mg QD (N = 4)) was 75% and the “Any TEAE, Grade ≥ 3, %” value (160 mg QD (N = 4)) was 0%. For the same molecule, the “Constipation, All grade, %” value (160 mg QD (N = 4)) was 25%, the “Constipation, Grade ≥ 3, %” value (160 mg QD (N = 4)) was 0% and the “Diarrhea, All grade, %” value (160 mg QD (N = 4)) was 0%. The “Diarrhea, Grade ≥ 3, %” value (160 mg QD (N = 4)) was 0%, the “Dizziness, All grade, %” value (160 mg QD (N = 4)) was 0% and the “Dizziness, Grade ≥ 3, %” value (160 mg QD (N = 4)) was 0%. For the same molecule, the “Dyspepsia, All grade, %” value (160 mg QD (N = 4)) was 0%, the “Dyspepsia, Grade ≥ 3, %” value (160 mg QD (N = 4)) was 0% and the “Nausea, All grade, %” value (160 mg QD (N = 4)) was 25%. The “Nausea, Grade ≥ 3, %” value (160 mg QD (N = 4)) was 0%, the “Neutropenia/Neutrophil count decreased, All grade, %” value (160 mg QD (N = 4)) was 0% and the “Neutropenia/Neutrophil count decreased, Grade ≥ 3, %” value (160 mg QD (N = 4)) was 0%. The “Platelet count decreased, All grade, %” value (160 mg QD (N = 4)) was 0%, the “Platelet count decreased, Grade ≥ 3, %” value (160 mg QD (N = 4)) was 0% and the “Serious TEAE, All grade, %” value (160 mg QD (N = 4)) was 25%. The “Serious TEAE, Grade ≥ 3, %” value (160 mg QD (N = 4)) was 0%, the “TEAE leading to Dose interruption, All grade, %” value (160 mg QD (N = 4)) was 0% and the “TEAE leading to Dose interruption, Grade ≥ 3, %” value (160 mg QD (N = 4)) was 0%. For the same molecule, the “TEAE leading to Dose permanently discontinued, All grade, %” value (160 mg QD (N = 4)) was 0%, the “TEAE leading to Dose permanently discontinued, Grade ≥ 3, %” value (160 mg QD (N = 4)) was 0% and the “TEAE leading to Dose reduced, All grade, %” value (160 mg QD (N = 4)) was 0%. The “TEAE leading to Dose reduced, Grade ≥ 3, %” value (160 mg QD (N = 4)) was 0%, the “Vomiting, All grade, %” value (160 mg QD (N = 4)) was 25% and the “Vomiting, Grade ≥ 3, %” value (160 mg QD (N = 4)) was 0%. The “Treatment-related adverse events of grade ≥3” value (320 mg QD) was “occurred”, the “Anorexia, All grade, %” value (320 mg QD (N = 3)) was 33% and the “Anorexia, Grade ≥ 3, %” value (320 mg QD (N = 3)) was 0%.
